Melting point data for 86 compounds are collected here from a melting point compilation (Tetko et al.; mined from patent text by program, amines drawn as free bases though some values may be those of a salt).

In general, melting point refers to the temperature of the solid-liquid transition. `CC(C)CNC(=O)[C@H](C)C[C@H](O)[C@H](CC1CCCCC1)NC(=O)[C@H](Cc1cscn1)NC(=O)[C@@H](CC(=O)N(C)Cc1ccccc1)Cc1ccccc1` returned a melting point of 118 to 120 °C.
Consider `COC(=O)c1ccc(C2C(C(=O)c3ccc(C)cc3)=C(O)C(=O)N2c2ncc(S(=O)(=O)c3ccc([N+](=O)[O-])cc3)s2)cc1` (stereo unspecified), for which the melting point was 249 to 251 °C.
On to `CCn1cc(CC(=O)O)c(OCCCc2cn(-c3ccc(C(F)(F)F)cn3)nc2C(C)C)n1`, for which the melting point is 99 to 100 °C.
The figure for `CN(C)CCNC(=O)Cc1ccc2ccn(C3CCN(CCc4ccc(F)cc4)CC3)c2c1` is 112 to 113 °C; for `Cc1ccc(NC(=O)N2CC(C)(C)NC(C)(C)CC2=O)cc1` it is 126 °C.
The figure for `COc1ccc(C(=O)c2ccsc2)cc1` is 58 to 61 °C.
To `COC(=O)C(O)=Cc1ncc(Cc2ccc(F)cc2)cn1` belongs 132 to 134 °C.
Take `COc1cc(C)nc(NC(=S)NS(=O)(=O)c2ccccc2Cl)n1`: the melting point was in the range of 186 to 188 °C.
For the compound `CC1OC(CN(C)C(=O)Nc2nnc(S(=O)(=O)N(C)C)s2)OC1C` (stereo unspecified), the melting point was 133 to 134 °C.
Turning to `O=C(O)c1cccc2c1CCc1ccc(O)cc1S2`, the melting point lay in the range of 219 to 221 °C.
For the compound `Cc1cccc2c1C(=O)/C(=C(\N)c1ccccc1)S2`, the melting point was in the range of 198 to 200 °C.
In turn, `CCCN(CCC)CCCCCOc1ccc2oc(-c3cccc(OC)c3)cc(=O)c2c1` came in with a melting point of 80 to 81 °C.
The figure for `NC(=O)Cc1cc(Oc2ccc3c(ccn3C(=O)Nc3ccc(N4CCN(C5CC5)CC4)c(C(F)(F)F)c3)c2)ncn1` is 236 to 240 °C.
Compound `COc1cccc(P(=O)(c2ccccc2)c2ccccc2)c1I` displayed a melting point of 186 to 189 °C.
In turn, `O=c1[nH]c2ncc(-c3ccc4[nH]ncc4c3)nc2n1CC1CCCCC1` yielded a melting point of 311 to 313 °C.
Regarding `Cc1c(C(F)(F)F)nc(C(F)(F)F)c(C(=O)O)c1O`, the melting point was 155 to 159 °C.
Regarding `CC(=O)OCC1=C(C(=O)OC(C)(C)C)N2C(=O)C(N)C2SC1` (stereo unspecified), the melting point is 111 to 112 °C.
The figure for `COc1cc(OC)cc(-c2nc3ccc(Nc4ccncc4)cc3c(=O)[nH]2)c1` is 289 to 290 °C.
To `CCOc1ccc(C(=O)CCC(=O)Nc2cc(OCCC(C)C)cc(-c3ccccc3)n2)cc1OCC` belongs 122 to 123 °C.
To `CC1(C)Oc2ccc(Cl)cc2C(NS(C)(=O)=O)C1O` (stereo unspecified) belongs 198 to 202 °C.
In turn, `OC1(C23CC4CC(CC(C4)C2)C3)CCCCC1` displayed a melting point of 166 to 168 °C.
The figure for `CNC(=O)C(C)n1cc(C)c(-c2ccccc2)n1` (stereo unspecified) is 111 to 112 °C; for `ClCc1ccc2c(c1)Nc1nccnc1S2` it is 161 to 162 °C.
The figure for `Cn1nc(-c2ccc(Cl)cc2)c2cc3ccccc3cc21` is 157 to 159 °C.
Take `COc1ccccc1C=Cc1nc2c(c(=O)n(C)c(=O)n2C)n1C`: the melting point was in the range of 238 to 240 °C.
Compound `Cc1nc2cc(NC(=O)Nc3cccc(C(F)(F)F)c3)ccc2o1` showed a melting point of 184 to 186 °C.
Compound `CC(C)(C)[Si](C)(C)Oc1cc(Cl)cc(C(O)(C#CC2CC2)C(F)(F)F)c1N` (stereo unspecified) displayed a melting point of 125 to 126 °C.
The figure for `CC(=O)Nc1ccc(OCC2CO2)c(-c2nnco2)c1` (stereo unspecified) is 173 to 175 °C; for `CC(C)(C)c1cc(CC(O)=S)cc(C(C)(C)C)c1O` it is 130 °C.
On to `CS(=O)(=O)c1ccc(-c2cnn(-c3ccc(Cl)cc3F)c(=O)c2-c2ccc(F)cc2)cc1`, for which the melting point was in the range of 250 to 260 °C.
For the compound `CCOC(=O)c1ncn2c1CN(Cc1ccc(OC)cc1OC)C(=O)c1ccccc1-2`, the melting point lay within 136 to 138 °C.
To `NC(=O)c1ccnc(-c2csc(N=C(N)N)n2)c1` belongs 169 to 171 °C; to `C=CCn1nc(C)c(C(=O)c2ccc(Cl)cc2Cl)c1O`, 161 to 163 °C; to `COc1cc(C=CC(=O)Nc2cnc3ccc(C)cc3c2-c2ccccc2C)cc(OC)c1OC(C)=O`, 242 to 243 °C.
The figure for `Cn1c(Cc2cccc(C(F)(F)F)c2)nc2c(-c3cccc(C(=O)NCCO)c3)cccc21` is 147 to 148 °C.
`CN1CC(CNN)CC2c3cccc4c3c(cn4C)CC21` (stereo unspecified) yielded a melting point of 102 to 103 °C.
`NS(=O)(=O)c1cc2c(s1)SCC(=O)N2` came in with a melting point of 243 to 245 °C.
To `O=[N+]([O-])c1cccc2c(Cl)ccnc12` belongs 144 to 146 °C; to `Cc1cc(O)c(O)cc1CC=Cc1ccccc1`, 85 °C; to `Cc1cc(Oc2c(Cl)cc(C(F)(F)F)cc2Cl)nn1C(=S)NCC1CCCO1` (stereo unspecified), 69 to 71 °C.
Consider `COc1cc(OC)c2c(=O)[nH]c(-c3ccc(OCC(=O)O)c(OC)c3)nc2c1`, for which the melting point lay in the range of 275 to 277 °C.
To `CCOC(=O)C(C)(C)OC(=O)c1cc([N+](=O)[O-])ccc1Cl` belongs 64 to 66 °C; to `Nc1c([N+](=O)[O-])sc2cc(Cl)ccc12`, 243 to 245 °C.
To `Clc1cnc(N2CCNCC2)c(Cl)n1` belongs 89 to 97 °C.
The figure for `Nc1c(F)c(N2CCC(=NO)CC2)c(F)c2c1c(=O)c(C(=O)O)cn2C1CC1` is 298 to 300 °C; for `O=C1Nc2ccccc2C12COc1ccc3c(c12)N(Cc1cccnc1)ON3` (stereo unspecified) it is 230 to 232 °C.
`COC(=O)C1=Cc2cc(Br)ccc2N(c2ccccc2)CC1` yielded a melting point of 104 to 106 °C.
Turning to `Cc1ncc2cc(-c3c(Cl)cccc3Cl)c(N)nc2n1`, the melting point is 287 to 289 °C.
The figure for `Cc1cc2c(cc1-c1c[nH]c(C=O)c1)C(C)(C)CCC2(C)C` is 128 to 129 °C; for `CCC(c1ccc(Cl)nc1)N(Cc1ccc(C(=O)O)cc1)S(=O)(=O)c1ccc(Cl)cc1` (stereo unspecified) it is 111 to 113 °C.
In turn, `CC(C)(Cc1ccc(Cl)cc1)C(O)(Cn1ccnc1)c1ccc(Cl)cc1` (stereo unspecified) registered a melting point of 174 °C.
The figure for `COC(=O)c1sc(C)c(Cl)c1O` is 105 to 107 °C; for `CN1CCC(OC(c2cccc(SCCNC(N)=O)c2)c2nc3ccccc3[nH]2)CC1` (stereo unspecified) it is 136 °C; for `Clc1ccccc1C(Cl)c1ccc(-c2ccccc2)cc1` (stereo unspecified) it is 80 °C.
In turn, `O=C(c1ccc(-c2cccc3ccccc23)cc1Cl)N1Cc2cccn2Cc2ccccc21` had a melting point of 115 to 118 °C.
In turn, `CC(C)(C)OC(=O)Nc1ccc(C#Cc2ccccc2)cc1N` yielded a melting point of 177 to 178 °C.
To `COc1ccc(S(=O)(=O)N(CCNS(C)(=O)=O)c2ccc(Cl)cc2Cc2c(F)cccc2F)cc1OC` belongs 133 °C; to `O=C1NCCc2ccc(OCCCCCl)cc2N1`, 177 to 179 °C.
To `CCCC12CCC3c4ccc(OC)cc4CCC3C1CCC2O` (stereo unspecified) belongs 141 to 143 °C; to `CCCCCCCCCCCCCN(O)C(=O)N(C)C`, 57 to 58 °C.
Regarding `NS(=O)(=O)c1cc2[nH]c(C(Cl)Cl)nc2cc1Cl`, the melting point is 225 to 227 °C.
The compound `COn1cc(C#N)c(C#N)c1-c1ccc(Cl)cc1` gave a melting point of 126 to 127 °C.
The figure for `O=C(O)c1ccc(CCCc2ccccc2CCc2ccccc2)cc1` is 97 to 98 °C; for `CC#Cc1cn(C2OC(CO)C(O)C2O)c(=O)nc1N` (stereo unspecified) it is 241 to 243 °C.
The figure for `COc1cc2c(cc1OC)Nc1nccn1C2` is 215 to 217 °C.
With `COc1ccc(C2C3=C(COC3=O)Nc3ccc4cc[nH]c4c32)cc1O` (stereo unspecified), the melting point lay in the range of 297 to 299 °C.
For `CCCc1c(-c2ccccc2)nc2n1CCc1ccccc1C2OC1CCN(C)CC1` (stereo unspecified), the melting point is 144 °C.
The figure for `CCN1CCN(c2cc(-c3ccc(O)cc3)c3c(n2)CCCCCC3)CC1` is 250 to 253 °C; for `CCOC(=O)c1c(N2CCN(C(=O)c3cccs3)CC2)c2cnccc2n(Cc2cccc(F)c2)c1=O` it is 135 °C.
Regarding `Cc1nc(C)c(CC#N)cc1CC#N`, the melting point is 65 to 67 °C.
To `O=C(O)CCCOc1ccccc1OCCC(c1ccccc1)(c1ccccc1)c1ccccc1` belongs 107 to 108 °C; to `O=C(NC1CCN(Cc2ccccc2)CC1)c1cccc(OCc2ccc3ccccc3n2)c1`, 60 to 62 °C.
The figure for `Cc1cc(C)c(COC2CC(n3cc(F)c(=O)[nH]c3=O)OC2CO)c(C)c1` (stereo unspecified) is 179 to 181 °C; for `O=C1c2ccccc2CN1c1ccc(OCCN2CCN(c3nsc4ccccc34)CC2)cc1` it is 166 to 167 °C; for `Cn1c(SCCCN2CCc3ccc(C(=O)c4ccccc4)cc3C2)nnc1-c1ccccc1` it is 146 to 152 °C.
`CC(O)C1C(=O)N2C1=CC(=O)C2C(=O)OCc1ccc([N+](=O)[O-])cc1` (stereo unspecified) had a melting point of 92 to 98 °C.
The compound `Nc1ccc2c(=O)n3c(nc2c1)C(=Cc1ccc(O)c(O)c1)CC3` came in with a melting point of 263 to 265 °C.
To `Cc1nc2c(c3c1[nH]c1cc(F)ccc13)C(=O)CC(C(C)C)C2` (stereo unspecified) belongs 285 to 286 °C; to `O=C(O)C(=O)CC(=O)c1cccn1Cc1ccccc1F`, 155 to 156 °C; to `CC(C)(C)c1ccc(CC[C@H](CC2CCCCC2)O[Si](C)(C)C(C)(C)C)cc1NC(=O)CC1c2ccccc2Oc2ccccc21`, 173 to 174 °C.
The compound `COc1ccc(OCC(O)CN2CCC(Nc3nc4c(C)cccc4n3Cc3nc(C)ccc3O)CC2)cc1` (stereo unspecified) showed a melting point of 227 °C.
The figure for `O=C1CC(c2cccc(-n3ccnc3)c2)=Nc2cc(O)c(-c3ccccc3F)cc2N1` is 220 °C; for `Fc1cc(F)cc(CN2CCN(c3cc(-c4ccccc4)c(C(F)(F)F)nn3)CC2)c1` it is 139 °C.
As for `COC(=O)c1ccc(C)c(-n2c(C)cc(OCc3ccccc3CNC(=O)Nc3cc(C(C)(C)C)nn3-c3cccc(OCCO)c3)c(Cl)c2=O)c1`, the melting point lay within 147 to 148 °C.
For the compound `CN1C(=O)N(c2ccc([N+](=O)[O-])c(C(F)(F)F)c2)C(=O)C1(C)CF` (stereo unspecified), the melting point is 118 to 119 °C.
The figure for `CSc1nn(-c2c(Cl)cc(Cl)cc2Cl)c(N(C)C)c1CC1C(=O)NC(=O)c2ccccc21` (stereo unspecified) is 186 to 187 °C.
